Drawing on a melting point compilation (Tetko et al.), this text covers melting point for 114 compounds.

Peptide text beside a SMILES is read from it.

A word on the melting point: it is the temperature, or range, at which the solid turns liquid. `CC(=O)O[C@H]1CCCC2=CC(=O)CC[C@@]21C` returned a melting point of 89 to 90 °C. Regarding `CC(C)COC(=O)c1ccc(O)cc1`, the melting point turned out to be 76 °C. For the compound `NC(=O)C#CC(N)=O`, the melting point was found to be 238 °C. Regarding `c1cocn1`, the melting point is -86 °C. With `O=C1CSC2(CCN(CCCN3c4ccccc4Sc4ccc(Cl)cc43)CC2)N1` the figure was 155 °C; with `CC(=O)c1ccccc1C(C)=O`, 40 °C. The compound `CC(CCC(=O)O)n1nnc2ccccc21` (centres undefined) came in with a melting point of 86 °C.

On to `CCCC(C)CCC`, for which the melting point was -121 °C. With `COc1ccc2cc(C(O)C(C)O)ccc2c1` (centres undefined), the melting point is 115 °C. For `CCCNC(N)=O`, the melting point was 107 to 109 °C. Regarding `O=C(CCCCC(=O)NCCCC(=O)ON1C(=O)CCC1=O)NCCCC(=O)ON1C(=O)CCC1=O`, the melting point amounted to 145 °C. With `Cc1c(Br)c(Br)c(O)c(Br)c1Br` the figure was 195 to 200 °C; with `CN1N=C(C(F)(F)F)CC1=O`, 179 °C.

Compound `Cc1cc(Cl)nn1C` gave a melting point of 47.5 °C. The compound `CC1=C(C(=O)OCc2ccccc2)C(c2ccc(O)c(O)c2)NC(=O)N1` (centres undefined) had a melting point of 214 to 216 °C. For the compound `CC(Br)C(=O)O` (centres undefined), the melting point amounted to 25 °C. `O=C(O)c1ccccc1Cn1cncn1`: the melting point lay in the range of 206 to 207 °C. With `OC(CCCN1CCCCC1)(c1ccccc1)c1ccccc1` the figure was 104 °C; with `Cc1nc(-c2ccc(Cl)cc2)sc1C(=O)Cl`, 180 to 183 °C; with `CC(C)c1cc(Br)c(N)c(Br)c1`, 46 °C.

In turn, `CC/C=C/Br` gave a melting point of -100 °C. `COc1ccc(Cc2c(N)n[nH]c2N)cc1`: the melting point lay in the range of 152 to 154 °C. Compound `CC(C)CCCC(C)C1CCC2C3CCC4=CC(=O)CCC4(C)C3CCC12C` (centres undefined) had a melting point of 79 to 82 °C.

In turn, `Cc1ncc(S(=O)(=O)C(C)(C)C)c(N)n1` yielded a melting point of 163 to 166 °C. The compound `CCSc1sc(C(=O)OC)c2c1C(=O)CC(C)(C)C2` yielded a melting point of 116 to 119 °C. Compound `CC(C)(C)NSc1nc2ccccc2s1` came in with a melting point of 108 °C. In the case of `COc1cccc(CCC(=O)O)c1`, the melting point is 45 °C. Compound `Sc1ccccc1S` registered a melting point of 28.5 °C.

The compound `CN(C)c1ccc(C=C(C#N)c2ccc(Cl)c(Cl)c2)cc1` gave a melting point of 213 to 214 °C. With `CC12CC(O)C3C(CCC4(O)CC(O)CC(O)C34CO)C1(O)CCC2C1=CC(=O)OC1` (centres undefined) the figure was 236 °C; with `CNS(=O)(=O)Cc1ccc2[nH]cc(CCN(C)C)c2c1`, 169 °C. `Cc1ncnc2[nH]cnc12` returned a melting point of 235 to 240 °C. Consider `Cc1c(C)c(Br)c2ccccc2c1Br`, for which the melting point is 164 °C. The compound `N#Cc1cnn2c(C(F)(F)F)cc(C(F)(F)F)nc12` returned a melting point of 75 to 77 °C. Compound `COC(=O)c1cc(O)ccc1O` gave a melting point of 87 °C.

On to `COc1ccc(C=CC(=O)Cl)c(Cl)c1OC`, for which the melting point is 86 to 88 °C. With `O=[N+]([O-])c1ccccc1N=C=S` the figure was 75 °C. As for `O=C(Nc1ccccc1)N(C(=O)C1Cc2ccccc21)c1ccccc1` (centres undefined), the melting point came out at 158 °C. The compound `C[C@H](N)C(=O)N[C@@H](C)C(=O)O` (H-Ala-Ala-OH) displayed a melting point of 286 to 288 °C. Consider `Cc1cc(Br)cc(Br)c1N`, for which the melting point was in the range of 44 to 49 °C. In turn, `O=C(Oc1ccccn1)Oc1ccccn1` showed a melting point of 90 °C. In turn, `CC(C)C(O)C1(C)CCC(C(=O)O)C(C)(C)O1` (centres undefined) had a melting point of 115 °C. On to `O=[N+]([O-])CCc1ccccc1`, for which the melting point is -23 °C. On to `CC(C)(C)[C@H](N)CO`, for which the melting point lay in the range of 30 to 34 °C. The compound `CCOC(=O)C(=NOC(C)(C)C(=O)OC(C)(C)C)c1csc(N)n1` displayed a melting point of 168 to 174 °C. Turning to `O=[N+]([O-])CC(O)C(Cl)(Cl)Cl` (centres undefined), the melting point is 45.5 °C. As for `Cc1nc2ccc(-c3ccccc3)cc2s1`, the melting point lay in the range of 90 to 95 °C.

`O=C(CBr)c1cc(Br)cc2c1OCC2`: the melting point lay within 132 to 134 °C. Compound `COc1cc(CCC(=O)O)ccc1O` had a melting point of 90 °C. With `c1ccc2cc(Nc3ccc4ccccc4c3)ccc2c1` the figure was 172 °C. The compound `Nc1c(Br)cc(Br)c2c1C(=O)c1ccccc1C2=O` registered a melting point of 227 °C. Turning to `CCc1cc(Cc2cc(CC)c(N)c(CC)c2)cc(CC)c1N`, the melting point was in the range of 88 to 91 °C. `Cc1ccccc1-n1ncc(C=O)c1C` displayed a melting point of 99 to 100 °C. The compound `CC(=O)Nc1ccc(C(C)=O)cc1Br` displayed a melting point of 140 °C. Consider `CCOC(=O)Nc1ccc(Cl)cc1`, for which the melting point lay in the range of 64 to 66 °C. In turn, `O=C1CCCCCCCCCCCCCCCO1` had a melting point of 33.5 °C. Take `CC(C)NCC(O)c1ccc(NS(C)(=O)=O)cc1` (centres undefined): the melting point came out at 207 °C. For `CC(=O)Nc1ccc(N=Nc2cc(C(C)C)c(N=Nc3ccc(NC(C)=O)cc3)cc2C)cc1`, the melting point came to 284 °C.

`Cc1c(O)cccc1C(=O)O` had a melting point of 144 °C.

For the compound `CC12CCC(=O)C=C1CCC1C2C(O)CC2(C)C(C(=O)CO)CCC12` (centres undefined), the melting point worked out at 181 °C. Take `Cc1cc2c(o1)-c1c(oc3ccccc13)CCC2(C)c1ccccc1` (centres undefined): the melting point is 135 °C. Regarding `O=C(NCCCCCCCCNC(=O)C(Cl)Cl)C(Cl)Cl`, the melting point lay in the range of 118 to 120 °C. The compound `Nc1snnc1-c1ccc(C(F)(F)F)cc1` had a melting point of 125 to 128 °C.

Take `Cc1cc(C#N)cc(Cl)c1N`: the melting point came to 129 °C. With `O=C1CCCN1c1ccc(S(=O)(=O)Cl)cc1` the figure was 107 to 108 °C; with `CCC1CC(=O)CC(C)(C)N1O` (centres undefined), 33 to 38 °C. On to `CC(=O)Oc1cccc(C#N)c1`, for which the melting point amounted to 60 °C. With `CCCCCCCCCCCCOc1ccc(C=O)cc1`, the melting point amounted to 28 °C. Consider `O=C(O)Cc1c[nH]c2ccccc12`, for which the melting point stood at 169 °C. In turn, `CCC(CO)NCCNC(CC)CO` (centres undefined) had a melting point of 89 °C. In turn, `FC(F)=C(F)C(F)(F)F` displayed a melting point of -156 °C. Then `CC(C)(C)OC(=O)N[C@@H](Cc1ccc(Cl)cc1Cl)C(=O)O`, with 132 °C; and `O=C(OC(=O)c1ccncc1)c1ccncc1`, with 133 °C. With `O=[N+]([O-])c1cccc(-n2cccc2)c1` the figure was 72 to 74 °C; with `CC(Cl)CCl` (centres undefined), -100 °C; with `O=Cc1cccc(C(F)(F)F)c1Cl`, 44 °C. `COc1c(OC)c(OC(C)=O)c2c(C#N)cccc2c1OC(C)=O` showed a melting point of 152 °C. `CCOC(=O)NC(=S)Nc1sc2c(c1C(=O)OCC)CCCC2` registered a melting point of 187 to 190 °C. On to `O=C(Oc1ccc(O)cc1)c1ccccc1`, for which the melting point was 166 °C.

In turn, `Clc1cc(Cl)cc(Br)c1` had a melting point of 83 °C.

Take `Nc1c(C(=O)O)cnc2c(C(=O)O)cnn12`: the melting point turned out to be 256 °C. `COc1ccc2c(CC(=O)O)coc2c1` yielded a melting point of 123 to 124 °C.

Take `Clc1cc(Cl)c2c(c1Cl)Oc1c(Cl)cc(Cl)c(Cl)c1O2`: the melting point was 238 °C. Compound `CCOC(=O)Nc1c([N+](=O)[O-])cc(C)cc1[N+](=O)[O-]` showed a melting point of 65 °C. `Cc1cccc(P(c2cccc(C)c2)c2cccc(C)c2)c1` came in with a melting point of 100 to 103 °C. `COC(=O)c1cc2c(=O)oc3ccccc3c2nc1C` came in with a melting point of 215 °C. `CCCCCCCCCCCCCCCC(CCCC)c1ccccc1` (centres undefined): the melting point amounted to 30.2 °C. In turn, `CC1OC(C)OC(C)OC(C)O1` (centres undefined) yielded a melting point of 246 °C. In the case of `CC(C)(C)OC(=O)N[C@@H](CSCc1ccccc1)C(=O)O`, the melting point lay within 85 to 88 °C. `COc1ccc(NC(=O)CS)cc1` gave a melting point of 118 to 119 °C. The compound `ClCc1noc(-c2ccsc2)n1` gave a melting point of 69 to 70 °C. `OCC1CCN(c2ncccn2)CC1` came in with a melting point of 52 to 54 °C. As for `CC(=O)OC1CCC2C3CCC4CC(=C(C)C)CCC4(C)C3CCC12C` (centres undefined), the melting point lay within 107 to 108 °C. For `CCOP(=S)(OCC)SCC(=O)NC(C)C`, the melting point worked out at 28.5 °C. Take `COc1cccc(-c2cccc(OC)c2)c1`: the melting point was determined as 36 °C. `COc1cc(C(=O)NN)cc(OC)c1O`: the melting point was 156 °C.

`CCCCCC(=O)c1ccccc1`: the melting point worked out at 27 °C. With `CC(=O)C1=CCC2(C)C(CCC3C4CCC(=O)C4(C)CCC32)C1` (centres undefined) the figure was 152 to 153 °C; with `Cn1nc(C(=O)Cl)cc1-c1ccccc1`, 80 to 82 °C; with `Cc1ccc2nc(O)cc(C)c2c1`, 240 °C. Compound `Cc1cc(Cl)[nH]n1` registered a melting point of 118 °C. As to `O=C1NC(=NN=Cc2ccccc2)SC1=Cc1ccccc1`, the melting point was determined as 295 °C. In the case of `O=C(O)c1ccc(O)c(C(=O)O)c1`, the melting point was found to be 310 °C. In turn, `O=C(c1ccccc1)C1CNc2cc3c(cc2C1)CC(C(=O)c1ccccc1)CN3` (centres undefined) came in with a melting point of 209 °C. Regarding `CCCCCCCCCCCCCCC(Br)C(=O)O` (centres undefined), the melting point fell in the range of 52 to 56 °C. Then `CCOc1ccc(C(NC(=O)c2ccccc2)NC(=O)c2ccccc2)cc1OC`, with 211 °C; and `Cc1ccc(S(=O)(=O)OCC#N)cc1`, with 50 to 51 °C; and `C1CCC(CCCC2CCCCC2)CC1`, with -17 °C. As for `CCCCCCF`, the melting point is -103 °C. As for `C=CCNC(=O)C(O)C(O)C(=O)NCC=C` (centres undefined), the melting point fell in the range of 182 to 186 °C. Then `Cc1ccc(S(=O)(=O)c2ncsc2SCc2ccc(Cl)cc2)cc1`, with 151 to 153 °C; and `O=C(O)C1CC(c2ccccc2)CCC1C(=O)c1ccccc1` (centres undefined), with 184 to 187 °C; and `CCOc1ccccc1C(C)=O`, with 40 °C. `BrC(Br)(Br)c1ccc2ccccc2n1`: the melting point was determined as 128 °C.
